Test results taken from paper PMC8876231, “Analogues of Natural Chalcones as Efficient Inhibitors of AKR1C3” (Metabolites, 2022).
Values joined by “and” are separate entries in the source; they are usually repeats but may differ in a detail not shown here. Identical values can stand only once.

Columns and labels:
[1] = molecular target: T1, HSD17B1 (Homo sapiens, UniProt P14061); assay: HSD17B1 inhibition assay (estrone to oestradiol); format: biochemical; conditions: 10 µM compound; mean ± SD
T1 construct: GST (own knowledge: pGEX vectors encode N-terminal GST); made in house; host or cells: E. coli BL21 DE3 Codon Plus RP
T1 sequence (P14061 1-328): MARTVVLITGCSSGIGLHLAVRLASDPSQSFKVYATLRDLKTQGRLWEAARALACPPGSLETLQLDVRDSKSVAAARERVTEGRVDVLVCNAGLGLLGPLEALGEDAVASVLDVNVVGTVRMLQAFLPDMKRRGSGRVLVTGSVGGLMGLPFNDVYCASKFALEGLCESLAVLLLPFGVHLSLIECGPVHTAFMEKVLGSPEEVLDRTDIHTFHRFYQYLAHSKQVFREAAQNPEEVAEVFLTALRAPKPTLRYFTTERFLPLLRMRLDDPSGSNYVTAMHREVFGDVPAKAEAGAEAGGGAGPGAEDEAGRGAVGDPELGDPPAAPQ
Excerpt: (§1) For enzymatic assays and inhibitor testing, all enzymes were cloned into bacterial or mammalian expression vectors. AKR1C3 and the human hydroxysteroid dehydrogenases HSD17B1, HSD17B2, HSD17B4 (SDR domain), HSD17B7, and HSD17B10 were cloned into a pGEX vector as described in [71, 72]. The coding sequences for AKR1C1, AKR1C2, and AKR1C4 were cloned by Gateway technology into the pcDNA3-N-MycDest vector according to the manufacturer’s instructions (Life Technologies, Carlsbad, CA, USA). The p11 plasmid coding for HSD17B14 (S205 variant) was a gift from Udo Opperman SGC Oxford, UK. For assays with HSD17B3, HEK293 cells stably expressing HSD17B3 were used. Enzymes were expressed in E. coli BL21 DE3 or E. coli BL21 DE3 Codon Plus RP (Stratagene, San Diego, CA, USA) or in HEK293 cells as described in [71, 72, 73]. Bacterial and cell pellets were stored at −20 °C and −80 °C, respectively, until use.
(§2) Inhibition assays were carried out as described in [71, 74]. […] For a detailed assay setup, see Supplementary Table S6. The incubation at 37 °C was stopped with 0.21 M ascorbic acid in methanol:acetic acid 99:1 (v:v) after the time needed to convert approximately 30% of the substrate in a control assay with 1% DMSO, without inhibitor candidate. Substrates and products were extracted from the reaction mixture by solid-phase extraction using C18 cartridges (Phenomenex, Aschaffenburg, Germany) and separated by RP–HPLC in a Beckman–Coulter HPLC Gold system, using the Luna 5 µm C18(2), 125 × 4.0 mm column (Phenomenex). The mobile phases used were H2O:ACN (57:43 (v:v); for assays of estrone (E1) to oestradiol (E2), E2 to E1, and ∆4-androstene-3,17-dione to testosterone conversion), H2O:ACN (49:51 (v:v); for assays of progesterone to 20α-hydroxyprogesterone conversion), and H2O:MeOH (35:65 (v:v) for assays of dihydrotestosterone (DHT) to 3α-androstanediol conversion) at a flow rate of 1 mL/min. Radioactivity was detected by online scintillation counting by using a radioactivity monitor (LB506D, Berthold Technologies, Bad Wildbad, Germany). Conversion of substrates to products was determined by integration of the peak area of the substrate and product peaks in percent. For calculation of inhibition, the conversion of control assay (assay without inhibitor) was set to 0% inhibition. All assays were run in triplicates, and mean values ± SD are reported.
(§3) Table S6: Activity assay setup […]
(§4) E1: estrone; E2: 17β-estradiol, A: Δ4-androstene-3,17-dione; T: testosterone, P: progesterone, 20αOHP: 20α-hydroxyprogesterone, DHT: dihydrotestosterone, 3α-Adiol: 3α-androstanediol, NaPi: 100 mM Na-phosphate buffer; PI: C0mplete protease inhibitor (Roche);. E.coli - Expression in E.coli BL21 DE3 Codon Plus RP except E.coli BL21 DE3 […]
(§5) application to antiparasitic and natural product synthesis. Eur J Org Chem […]
(§6) Synthesis of Xanthohumol analogues and discovery of potent thioredoxin reductase inhibitor as potential anticancer agent. J Med Chem 2015, 58,

[2] = molecular target: T2, HSD17B2 (Homo sapiens, UniProt P37059); assay: HSD17B2 inhibition assay (oestradiol to estrone); format: biochemical; conditions: 10 µM compound; mean ± SD
T2 construct: GST (own knowledge: pGEX vectors encode N-terminal GST); made in house; host or cells: E. coli BL21 DE3 Codon Plus RP
T2 sequence (P37059 1-387): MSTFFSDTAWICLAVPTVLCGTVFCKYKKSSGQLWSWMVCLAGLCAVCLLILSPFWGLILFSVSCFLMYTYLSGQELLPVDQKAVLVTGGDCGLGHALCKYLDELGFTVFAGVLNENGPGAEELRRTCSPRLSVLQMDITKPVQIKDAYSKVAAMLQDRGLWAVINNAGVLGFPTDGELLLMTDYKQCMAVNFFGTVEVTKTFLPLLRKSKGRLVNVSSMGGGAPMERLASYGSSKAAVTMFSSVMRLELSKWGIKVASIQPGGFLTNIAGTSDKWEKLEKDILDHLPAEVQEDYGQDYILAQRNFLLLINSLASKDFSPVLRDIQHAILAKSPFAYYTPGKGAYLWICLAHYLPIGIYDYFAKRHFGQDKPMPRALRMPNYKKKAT
Excerpt: as §1, §2, §3, §4, §5, §6

[3] = molecular target: T3, AKR1C4 (Homo sapiens, UniProt P17516); assay: AKR1C4 inhibition assay (DHT to 3α-androstanediol); format: biochemical; conditions: 10 µM compound; mean ± SD
T3 construct: Myc (N); expressed in transfected cells; host or cells: HEK293
T3 sequence (P17516 1-323): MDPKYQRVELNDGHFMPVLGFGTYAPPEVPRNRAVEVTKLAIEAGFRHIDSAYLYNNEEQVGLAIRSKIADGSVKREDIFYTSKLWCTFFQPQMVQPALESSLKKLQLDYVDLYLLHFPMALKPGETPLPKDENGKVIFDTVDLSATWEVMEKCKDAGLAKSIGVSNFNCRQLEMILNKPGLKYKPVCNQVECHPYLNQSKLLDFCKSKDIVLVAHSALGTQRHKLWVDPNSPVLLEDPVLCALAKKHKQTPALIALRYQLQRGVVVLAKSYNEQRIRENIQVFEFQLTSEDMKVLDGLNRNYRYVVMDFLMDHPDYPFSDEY
Excerpt: as §1, §2, §3, §4, §5, §6

[4] = test system: HEK293T cells; assay: Cell Titer Blue cell viability (cytotoxicity) assay; conditions: 72 h, 1 µM to 100 µM tested
Experimental: For the cultivation of HEK293T cells, Dulbecco’s modified Eagle medium (DMEM, Pan Biotech GmbH, Aidenbach, Germany) supplemented with 10% FCS (Pan Biotech GmbH), 100 U/mL penicillin, and 100 µg/mL streptomycin (Pan Biotech GmbH) was used. The cells were cultured at 37 °C and 5% CO2 in constant humidity. Before cell seeding, culture flasks and multiwell plates were coated with collagen G (0.001% in PBS, Merck, Darmstadt, Germany).
For studying the cytotoxicity of the different chalcones and the positive control compounds cisplatin and etoposide on HEK293T cells, the Cell Titer® Blue (CTB) Cell Viability Assay was used (Promega, Mannheim, Germany). A total of 10,000 cells in a 200 µL culture medium were seeded into each well of a 96-well plate. Then, 24 h after seeding, the cells were treated with 0, 1, 2.5, 5, 7.5, 10, 15, 25, 50, or 100 µM of the different compounds (3 wells per compound and concentration) and incubated for an additional 72 h. For measurement of cell viability, 20 µL of CTB reagent were added to each well, and after 5 h at 37 °C, the metabolic activity was quantified by recording the fluorescence signal (λEx 560 nm, λEm 590 nm) on a Spark plate reader (Tecan Trading GmbH, Männedorf, Switzerland). […] Statistical significances were calculated by one-way ANOVA (Dunnett’s multiple comparison test), * p < 0.05, ** p < 0.005, *** p < 0.0002, **** p < 0.0001.

Row | SMILES | Inhibition of HSD17B1 at 10 µM in % [1] [%] | Inhibition of HSD17B2 at 10 µM in % [2] [%] | Inhibition of AKR1C4 at 10 µM in % [3] | inhibition at 10 µM [1] [%] | inhibition at 10 µM [2] [%] | Compound concentration at which HEK293T viability was significantly decreased [4] [µM] | inhibition at 10 µM [3] [%]
1 | COc1ccc(/C=C/C(=O)c2c(O)cc(O)cc2OC)cc1 [Compound 18] | 46.5 ± 8.8 | 10.4 ± 1.6 | 25.0 ± 1.5% | – | – | – | –
2 | COc1ccc(/C=C/C(=O)c2c(O)cc(O)cc2O)cc1 [Compound 19] | 42.3 ± 5.3 | 29.6 ± 3.7 | 93.3 ± 0.7% and > 75% | – | – | – | –
3 | Cc1cccc(/C=C/C(=O)c2c(O)cc(O)cc2O)c1 [Compound 20] | 51.8 ± 5.1 | 61.0 ± 0.9 | 79.6 ± 0.2% and > 75% | – | – | – | –
4 | Cc1ccc(/C=C/C(=O)c2c(O)cc(O)cc2O)cc1 [Compound 21] | 42.8 ± 9.1 | 44.2 ± 4.7 | 91.6 ± 1.5% and > 75% | – | – | – | –
5 | O=C(/C=C/c1ccc(Cl)cc1Cl)c1c(O)cc(O)cc1O [Compound 23, 2,4-dichloro-2′,4′,6′-trihydroxychalcone] | – | – | – | 53.3 | 88.8 | ≥ 50 | 97 ± 0.9
6 | COc1cc(O)cc(O)c1C(=O)/C=C/c1ccc(Cl)cc1Cl [Compound 25] | – | 12.7 ± 2.3 | 41.6 ± 1.8% | – | – | 7.5 | –
